Reference: US20230091047A1 (priority 2019, published 2023)
Where two headings read alike, the source gives them in different places.

Tests used:
in vitro = format: cell-based; settings: human, HepG2 or HepG2.117 cells, ATPlite, mean value
Procedure: Cytotoxicity of the compounds was tested using HepG2 or HepG2.117 cells, incubated for 3 or 4 days in the presence of compounds. The viability of the cells was assessed using the PERKIN ELMER ATPlite Luminescence Assay System.”

[1] = tested on: HBV (HepG2.117 cell line, inducibly HBV producing); assay: Anti-HBV activity: intracellular HBV DNA by real-time PCR in HepG2.117 cells after 3 days of treatment; format: cell-based, hepatitis B virus
Procedure: The anti HBV activity was measured using the HepG2.117 cell line, a stable, inducibly HBV producing cell line, which replicates HBV in the absence of doxycycline (Tet-off system). The HepG2 cell line is available from ATCCR under number HB-8065. Transfection of the HepG2 cell line can be as described in Sun and Nassal 2006 Journal of Hepatology 45 (2006) 636-645 “Stable HepG2- and Huh7-based human hepatoma cell lines for efficient regulated expression of infectious hepatitis B virus”.
For the antiviral assay, HBV replication was induced, followed by a treatment with serially diluted compound in 96-well plates. After 3 days of treatment, the antiviral activity was determined by quantification of intracellular HBV DNA using real-time PCR and an HBV specific primer set and probe.

[2] = 3-days incubation (unmarked values)
[3] = Hepatitis B virus, HepG2.117, 72 h, HepG2.117 cells, 3 days of treatment, intracellular HBV DNA by real-time PCR; mean value; read-out: EC50 (μM, mean value)
[4] = 3-days incubation (not marked with *)
[5] = Hepatitis B virus, HepG2.117, 72 h, HepG2.117 cells, intracellular HBV DNA by real-time PCR, 3 days of treatment, mean value; read-out: EC50 (μM, mean value)

Compound | CC50 at 3 days (in vitro; [2]) | EC50 [1, 3] | CC50 at 3 days (in vitro; [4]) | EC50 [1, 5] | CC50 at 4 days (in vitro; 4-days incubation (values marked with *))
CNC(=O)c1ccc(-n2c(N[C@H](C)c3ccncc3)nc3c(c2=O)C[C@@H](C)N(C(=O)c2ccc(Cl)c(Cl)c2)C3)cc1 (single isomer, unassigned) [Compound C375a] | > 50 µM | 3.19 µM | – | – | –
CNC(=O)c1ccc(-n2c(NC(C)C)nc3c(c2=O)C[C@@H](C)N(C(=O)c2cc(F)c(Cl)cc2F)C3)cc1 [Compound C498] | – | – | > 50 µM | 2.92 µM | –
CNC(=O)c1ccc(-n2c(NCc3ccc(OC)cc3)nc3c(c2=O)CCN(C(=O)c2ccc(Cl)c(Cl)c2)C3)cc1F [Compound C220, 4-[7-(3,4-dichlorobenzoyl)-2-{[(4-methoxyphenyl)methyl]amino}-4-oxo-5,6,7,8-tetrahydropyrido[3,4-d]pyrimidin-3(4H)-yl]-2-fluoro-N-methylbenzamide] | > 50 µM | 0.42 µM | – | – | –
COc1ccc(CNc2nc3c(c(=O)n2-c2ccccc2Cl)CCN(C(=O)c2ccc(Cl)c(Cl)c2)C3)cc1 [Compound C15, 3-(2-chlorophenyl)-7-(3,4-dichlorobenzoyl)-2-{[(4-methoxyphenyl)methyl]amino}-5,6,7,8-tetrahydropyrido[3,4-d]pyrimidin-4(3H)-one] | > 50 µM | 1.08 µM | – | – | –
Cc1noc(C)c1-c1ccc(-n2c(NC(C)C)nc3c(c2=O)C[C@@H](C)N(C(=O)c2ccc(Cl)c(Cl)c2)C3)cc1 [Compound C211, (6R)-7-(3,4-dichlorobenzoyl)-3-[4-(3,5-dimethyl-1,2-oxazol-4-yl)phenyl]-6-methyl-2-[(propan-2-yl)amino]-5,6,7,8-tetrahydropyrido[3,4-d]pyrimidin-4(3H)-one] | > 50 µM | 0.15 µM | – | – | –
CNC(=O)OCC[C@H](Nc1nc2c(c(=O)n1-c1ccc(C(=O)NC)cc1)C[C@@H](C)N(C(=O)c1ccc(Cl)c(Cl)c1)C2)C1CC1 (single isomer, unassigned) [Compound C257, (3*S)-3-cyclopropyl-3-({(6R)-7-(3,4-dichlorobenzoyl)-6-methyl-3-[4-(methylcarbamoyl)phenyl]-4-oxo-3,4,5,6,7,8-hexahydropyrido[3,4-d]pyrimidin-2-yl}amino)propyl methylcarbamate] | > 50 µM | 0.84 µM | – | – | –
CNC(=O)c1ccc(-n2c(N[C@H](C)c3ccc4[nH]ccc4c3)nc3c(c2=O)C[C@@H](C)N(C(=O)c2ccc(Cl)c(Cl)c2)C3)cc1 (single isomer, unassigned) [Compound C449a] | – | – | > 50 µM | 0.04 µM | –
CNC(=O)c1ncc(-n2c(NC)nc3c(c2=O)C[C@@H](C)N(C(=O)c2ccc(Cl)c(Cl)c2)C3)cn1 [Compound C327, 5-[(6R)-7-(3,4-dichlorobenzoyl)-6-methyl-2-(methylamino)-4-oxo-5,6,7,8-tetrahydropyrido[3,4-d]pyrimidin-3(4H)-yl]-N-methylpyrimidine-2-carboxamide] | > 50 µM | 5.15 µM | – | – | –
CC(=O)c1ccc(-n2c(NC(C)C)nc3c(c2=O)CCN(C(=O)c2ccc(Cl)c(Cl)c2)C3)cc1 [Compound C127, 3-(4-acetylphenyl)-7-(3,4-dichlorobenzoyl)-2-[(propan-2-yl)amino]-5,6,7,8-tetrahydropyrido[3,4-d]pyrimidin-4(3H)-one] | > 50 µM | 1.28 µM | – | – | –
CNC(=O)c1ccc(-n2c(N(C)Cc3cccc(OC)c3)nc3c(c2=O)C[C@@H](C)N(C(=O)c2ccc(Cl)c(Cl)c2)C3)cc1 [Compound C457] | – | – | 38.1 µM | 0.1 µM | –
COc1ccc(CNc2nc3c(c(=O)n2-c2cccc4ocnc24)CCN(C(=O)c2ccc(Cl)c(Cl)c2)C3)cc1 [Compound C148, 3-(1,3-benzoxazol-4-yl)-7-(3,4-dichlorobenzoyl)-2-{[(4-methoxyphenyl)methyl]amino}-5,6,7,8-tetrahydropyrido[3,4-d]pyrimidin-4(3H)-one] | > 38 µM | 1.48 µM | – | – | –
CNC(=O)c1ccc(-n2c(NC(C)C)nc3c(c2=O)C[C@@H](C)N(C(=O)c2cc4c(C)c(F)ccc4[nH]2)C3)cc1 [Compound C570] | – | – | 24.5 µM | 0.01 µM | –
COc1ccccc1-n1c(NCc2nccs2)nc2c(c1=O)CCN(C(=O)c1ccc(Cl)c(Cl)c1)C2 [Compound C13, 7-(3,4-dichlorobenzoyl)-3-(2-methoxyphenyl)-2-{[(1,3-thiazol-2-yl)methyl]amino}-5,6,7,8-tetrahydropyrido[3,4-d]pyrimidin-4(3H)-one] | – | 8.75 µM | – | – | 38.9 µM
COc1ccc(CNc2nc3c(c(=O)n2-c2ccc(C(=O)O)cc2)CCN(C(=O)c2ccc(Cl)c(Cl)c2)C3)cc1 [Compound C124, 4-[7-(3,4-dichlorobenzoyl)-2-{[(4-methoxyphenyl)methyl]amino}-4-oxo-5,6,7,8-tetrahydropyrido[3,4-d]pyrimidin-3(4H)-yl]benzoic acid] | > 50 µM | 36.8 µM | – | – | –
CNC(=O)c1ccc(-n2c(NC(C)c3nccs3)nc3c(c2=O)C[C@@H](C)N(C(=O)c2ccc(Cl)c(Cl)c2)C3)cc1 (stereo partly shown) [Compound C434] | – | – | > 50 µM | 0.57 µM | –
CNC(=O)c1ccc(-n2c(NCc3n[nH]c(C)n3)nc3c(c2=O)C[C@@H](C)N(C(=O)c2ccc(Cl)c(Cl)c2)C3)cc1 [Compound C541] | – | – | > 50 µM | > 25 µM | –
CNC(=O)c1cc(-n2c(N[C@@H](C)c3ccc(F)cc3)nc3c(c2=O)C[C@@H](C)N(C(=O)c2ccc(Cl)c(Cl)c2)C3)nn1C [Compound C624] | – | – | > 50 µM | 0.06 µM | –
CNC(=O)c1ccc(-n2c(NC(C)C)nc3c(c2=O)C[C@@H](C)N(C(=O)c2ccc(F)c(C#N)c2)C3)cc1 [Compound C641] | – | – | > 50 µM | 1.99 µM | –
CNc1noc2cc(-n3c(N[C@@H](C)c4ccc(C(F)(F)F)cc4)nc4c(c3=O)C[C@@H](C)N(C(=O)c3ccc(Cl)c(Cl)c3)C4)ccc12 [Compound C612, (R)-7-(3,4-dichlorobenzoyl)-6-methyl-3-(3-(methylamino)-benzo[d]isoxazol-6-yl)-2-(((S)-1-(4-(trifluoromethyl)phenyl)ethyl)amino)-5,6,7,8-tetrahydropyrido[3,4-d]pyrimidin-4(3H)-one] | – | – | > 50 µM | 0.14 µM | –
COc1ccccc1-n1c(N[C@H](C)CO)nc2c(c1=O)CCN(C(=O)c1ccc(Cl)c(Cl)c1)C2 (single isomer, unassigned) [Compound C62A, 7-(3,4-dichlorobenzoyl)-2-{[(2*R)-1-hydroxypropan-2-yl]amino}-3-(2-methoxyphenyl)-5,6,7,8-tetrahydropyrido[3,4-d]pyrimidin-4(3H)-one] | > 50 µM | 9.88 µM | – | – | –
CNC(=O)c1ccc(-n2c(N[C@@H](C)c3ccc(C(F)(F)F)c(Cl)c3)nc3c(c2=O)C[C@@H](C)N(C(=O)c2ccc(Cl)c(Cl)c2)C3)cc1 (single isomer, unassigned) [Compound C664b] | – | – | > 50 µM | > 2.5 µM | –
COc1ccc(C(C)Nc2nc3c(c(=O)n2-c2ccc(NC(C)=O)cc2)C[C@@H](C)N(C(=O)c2ccc(Cl)c(Cl)c2)C3)cc1 (stereo partly shown) [Compound C410] | – | – | 32.6 µM | 0.13 µM | –
CNC(=O)c1ccc(-n2c(N[C@H](C)c3ccnn3C)nc3c(c2=O)C[C@@H](C)N(C(=O)c2ccc(Cl)c(Cl)c2)C3)cc1 (single isomer, unassigned) [Compound C372a] | > 50 µM | 5.42 µM | – | – | –
CNC(=O)c1ccc(-n2c(NC(C)C)nc3c(c2=O)C[C@@H](C)N(C(=O)c2cc(C)cc(F)c2)C3)cc1 [Compound C492] | – | – | > 50 µM | 1.98 µM | –
CNC(=O)c1ccc(-n2c(N[C@H](C)c3ccc4[nH]ncc4c3)nc3c(c2=O)C[C@@H](C)N(C(=O)c2ccc(Cl)c(Cl)c2)C3)cc1 (single isomer, unassigned) [Compound C529a] | – | – | > 50 µM | 0.16 µM | –
CNC(=O)c1ccc(-n2c(N[C@H](C)c3cccnc3OC)nc3c(c2=O)C[C@@H](C)N(C(=O)c2ccc(Cl)c(Cl)c2)C3)cc1 (single isomer, unassigned) [Compound C285, 4-[(6R)-7-(3,4-dichlorobenzoyl)-2-{[(1*R)-1-(2-methoxypyridin-3-yl)ethyl]amino}-6-methyl-4-oxo-5,6,7,8-tetrahydropyrido[3,4-d]pyrimidin-3(4H)-yl]-N-methylbenzamide] | 27.6 µM | 0.37 µM | – | – | –
CC(C)Nc1nc2c(c(=O)n1-c1ccc3c(c1)CNC3=O)C[C@@H](C)N(C(=O)c1ccc(Cl)c(Cl)c1)C2 [Compound C231, (6R)-7-(3,4-dichlorobenzoyl)-6-methyl-3-(1-oxo-2,3-dihydro-1H-isoindol-5-yl)-2-[(propan-2-yl)amino]-5,6,7,8-tetrahydropyrido[3,4-d]pyrimidin-4(3H)-one] | > 50 µM | 0.15 µM | – | – | –
CNC(=O)c1cc(-n2c(O)nc3c(c2=O)C[C@@H](C)N(C(=O)c2ccc(Cl)c(C(F)(F)F)c2)C3)n(C)n1 [Compound C653] | – | – | > 50 µM | > 2.5 µM | –
CNC(=O)c1ccc(-n2c(NCc3cccc(-n4cncn4)c3)nc3c(c2=O)C[C@@H](C)N(C(=O)c2ccc(Cl)c(Cl)c2)C3)cc1 [Compound C543] | – | – | > 50 µM | 7.02 µM | –
